In patent publication US9655363B2, “Microbiocides” (Syngenta Participations AG, priority 2013, dated 2017):

Legend:
[1] = system: Mycosphaerella Graminicola (Septoria Tritici); test: Mycosphaerella graminicola (Septoria tritici) / liquid culture (Septoria blotch); format: cell-based; details: Zymoseptoria tritici, liquid culture (PDB), growth inhibition photometrically 4-5 days after application, read-out: disease control
Procedure: (§1) Fungicidal Activity Against Mycosphaerella Graminicola (Septoria Tritici)/Liquid Culture (Septoria Blotch) Conidia of the fungus from cryogenic storage were directly mixed into nutrient broth (PDB potato dextrose broth). After placing a (DMSO) solution of test compound into a microtiter plate (96-well format), the nutrient broth containing the fungal spores was added. The test plates were incubated at 24° C. and the inhibition of growth was determined photometrically 4-5 days after application.

[2] = system: Thanatephorus Cucumeris (Rhizoctonia Solani); test: Thanatephorus cucumeris (Rhizoctonia solani) / liquid culture (foot rot, damping-off); format: cell-based; details: liquid culture (PDB), growth inhibition photometrically 3-4 days after application, read-out: disease control
Procedure: Fungicidal Activity Against Thanatephorus Cucumeris (Rhizoctonia Solani)/Liquid Culture (Foot Rot, Damping-Off) Mycelia fragments of a newly grown liquid culture of the fungus were directly mixed into nutrient broth (PDB potato dextrose broth). After placing a (DMSO) solution of the test compounds into a microtiter plate (96-well format), the nutrient broth containing the fungal material was added. The test plates were incubated at 24° C. and the inhibition of growth was determined photometrically 3-4 days after application. Compounds (from table T1) 1, 2, 4, 7, 8, 10, 11, 13, 14 and 17 at 200 ppm give at least 80% disease control in this test when compared to untreated control leaf disks under the same conditions, which show extensive disease development.

[3] = system: Mycosphaerella Arachidis (Cercospora Arachidicola); test: Mycosphaerella arachidis (Cercospora arachidicola) / liquid culture (early leaf spot); format: cell-based; details: liquid culture (PDB), growth inhibition photometrically 4-5 days after application, read-out: disease control
Procedure: as §1, with “Arachidis (Cercospora Arachidicola)/Liquid” for “Graminicola (Septoria Tritici)/Liquid”, “(Early Leaf Spot)” for “(Septoria Blotch)”

[4] = system: Puccinia Recondita f. sp. Tritici; test: Puccinia recondita f. sp. tritici / wheat / leaf disc preventative (brown rust); format: in vivo; details: foliar, wheat leaf disc cv. Kanzler, compared to untreated, 7-9 days after application, read-out: disease control
Procedure: Fungicidal Activity Against Puccinia Recondita f. sp. Tritici/Wheat/Leaf Disc Preventative (Brown Rust) Wheat leaf segments cv. Kanzler were placed on agar in multiwell plates (24-well format) and sprayed with the formulated test compound diluted in water. The leaf disks were inoculated with a spore suspension of the fungus 1 day after application. The inoculated leaf segments were incubated at 19° C. and 75% rh under a light regime of 12 h light/12 h darkness in a climate cabinet and the activity of a compound was assessed as percent disease control compared to untreated when an appropriate level of disease damage appears in untreated check leaf segments (7-9 days after application).

[5] = system: Blumeria Graminis f. sp. Tritici (Erysiphe Graminis f. sp. Tritici); test: Blumeria graminis f. sp. tritici / wheat / leaf disc preventative (powdery mildew on wheat); format: in vivo; details: foliar, wheat leaf disc cv. Kanzler, compared to untreated, 6-8 days after application, read-out: disease control
Procedure: Fungicidal Activity Against Blumeria Graminis f. sp. Tritici (Erysiphe Graminis f. sp. Tritici)/Wheat/Leaf Disc Preventative (Powdery Mildew on Wheat) Wheat leaf segments cv. Kanzler were placed on agar in a multiwell plate (24-well format) and sprayed with the formulated test compound diluted in water. The leaf disks were inoculated by shaking powdery mildew infected plants above the test plates 1 day after application. The inoculated leaf disks were incubated at 20° C. and 60% rh under a light regime of 24 h darkness followed by 12 h light/12 h darkness in a climate chamber and the activity of a compound was assessed as percent disease control compared to untreated when an appropriate level of disease damage appears on untreated check leaf segments (6-8 days after application).

[6] = system: Puccinia Recondita f. sp. Tritici; test: Puccinia recondita f. sp. tritici / wheat / leaf disc curative (brown rust); format: in vivo; details: foliar, 192 h, compared to untreated, 8 days after inoculation, read-out: disease control
Procedure: Fungicidal Activity Against Puccinia Recondita f. sp. Tritici/Wheat/Leaf Disc Curative (Brown Rust) Wheat leaf segments are placed on agar in multiwell plates (24-well format). The leaf disks are then inoculated with a spore suspension of the fungus. One day after inoculation the test solution is applied. After appropriate incubation the activity of a compound is assessed 8 dpi (days after inoculation) as curative fungicidal activity. Dose range: 200-22 ppm.

OC(Cn1cncn1)(c1ccc(F)cc1)C1(c2ccc(Br)cn2)CCC1 (stereo not drawn) [Compound 17, 1-[1-(5-bromo-2-pyridyl)cyclobutyl]-1-(4-fluorophenyl)-2-(1,2,4-triazol-1-yl)ethanol]
≥ 80%: inhibition of growth at 200 ppm [1] | inhibition of growth at 200 ppm [2] | inhibition of growth at 200 ppm [3] | pest or weed control at 200 ppm [4] | pest or weed control at 200 ppm [5] | pest or weed control at 200 ppm [6]
